Laboratory results from patent publication US7183324B2, “2,3,4-substituted cyclopentanones as therapeutic agents” (Allergan, Inc., priority 2004, dated 2007).

Tests used:
hEP2/Gqs5 = biological target: T1, hEP2/Gqs5 (Homo sapiens, UniProt P43116); assay: FLIPR calcium signal, hEP2/Gqs5; assay type: cell-based; settings: HEK-293 (EBNA) cells, read-out: FUNCTIONAL EC50 HEP2
T1 construct: expressed in transfected cells; host or cells: HEK-293 (EBNA)
Experimental: (§1) HEK-293 (EBNA) cells, stably expressing one type or subtype of recombinant human prostaglandin receptors (prostaglandin receptors expressed: hDP/Gqs5; hEP1; hEP2/Gqs5; hEP3A/Gqi5; hEP4/Gqs5; hFP; hIP; hTP), were cultured in 100 mm culture dishes in high-glucose DMEM medium containing 10% fetal bovine serum, 2 mM 1-glutamine, 250 μg/ml geneticin (G418) and 200 μg/ml hygromycin B as selection markers, and 100 units/ml penicillin G, 100 μg/ml streptomycin and 0.25 μg/ml amphotericin B. • (b) Calcium Signal Studies on the FLIPR™
(§2) Cells were seeded at a density of 5×10^4 cells per well in Biocoat® Poly-D-lysine-coated black-wall, clear-bottom 96-well plates (Becton-Dickinson) and allowed to attach overnight in an incubator at 37° C. Cells were then washed two times with HBSS-HEPES buffer (Hanks Balanced Salt Solution without bicarbonate and phenol red, 20 mM HEPES, pH 7.4) using a Denley Cellwash plate washer (Labsystems). After 45 minutes of dye-loading in the dark, using the calcium-sensitive dye Fluo-4 AM at a final concentration of 2 μM, plates were washed four times with HBSS-HEPES buffer to remove excess dye leaving 100 μl in each well. Plates were re-equilibrated to 37° C. for a few minutes.
(§3) Cells were excited with an Argon laser at 488 nm, and emission was measured through a 510–570 nm bandwidth emission filter (FLIPR™, Molecular Devices, Sunnyvale, Calif.). Drug solution was added in a 50 μl volume to each well to give the desired final concentration. The peak increase in fluorescence intensity was recorded for each well. On each plate, four wells each served as negative (HBSS-HEPES buffer) and positive controls (standard agonists: BW245C (hDP); PGE2 (hEP1; hEP2/Gqs5; hEP3A/Gqi5; hEP4/Gqs5); PGF2α (hFP); carbacyclin (hIP); U46619 (hTP), depending on receptor). The peak fluorescence change in each drug-containing well was then expressed relative to the controls.
Compounds were tested in a high-throughput (HTS) or concentration-response (CoRe) format. […]

hIP = biological target: T2, hIP (Homo sapiens, UniProt P43119); assay: FLIPR calcium signal, hIP; assay type: cell-based; settings: HEK-293 (EBNA) cells, read-out: FUNCTIONAL EC50 HIP
T2 construct: expressed in transfected cells; host or cells: HEK-293 (EBNA)
Experimental: as §1
(§4) Cells were seeded at a density of 5×10^4 cells per well in Biocoat® Poly-D-lysine-coated black-wall, clear-bottom 96-well plates (Becton-Dickinson) and allowed to attach overnight in an incubator at 37° C. Cells were then washed two times with HBSS-HEPES buffer (Hanks Balanced Salt Solution without bicarbonate and phenol red, 20 mM HEPES, pH 7.4) using a Denley Cellwash plate washer (Labsystems). […]
(§5) Cells were excited with an Argon laser at 488 nm, and emission was measured through a 510–570 nm bandwidth emission filter (FLIPR™, Molecular Devices, Sunnyvale, Calif.). […] The peak increase in fluorescence intensity was recorded for each well. […] The peak fluorescence change in each drug-containing well was then expressed relative to the controls. […]

hTP = biological target: T3, hTP (Homo sapiens, UniProt P21731); assay: FLIPR calcium signal, hTP; assay type: cell-based; settings: HEK-293 (EBNA) cells, read-out: FUNCTIONAL EC50 HTP
T3 construct: expressed in transfected cells; host or cells: HEK-293 (EBNA)
T3 sequence (P21731 1-343): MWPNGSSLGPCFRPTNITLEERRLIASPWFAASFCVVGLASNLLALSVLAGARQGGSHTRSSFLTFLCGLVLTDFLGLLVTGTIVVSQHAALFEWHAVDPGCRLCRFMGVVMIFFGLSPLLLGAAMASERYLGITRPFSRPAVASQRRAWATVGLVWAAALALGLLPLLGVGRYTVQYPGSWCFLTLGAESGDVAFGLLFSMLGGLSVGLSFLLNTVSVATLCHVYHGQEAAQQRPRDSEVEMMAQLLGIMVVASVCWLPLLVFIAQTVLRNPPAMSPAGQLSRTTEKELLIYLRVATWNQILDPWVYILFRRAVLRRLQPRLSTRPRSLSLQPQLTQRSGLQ
Experimental: as §1, §2, §3
(§6) Compounds were tested in a high-throughput (HTS) or concentration-response (CoRe) format. In the HTS format, forty-four compounds per plate were examined in duplicates at a concentration of 10^−5 M. To generate concentration-response curves, four compounds per plate were tested in duplicates in a concentration range between 10^−5 and 10^−11 M. The duplicate values were averaged. In either, HTS or CoRe format each compound was tested on at least 3 separate plates using cells from different passages to give an n≧3.

HEP3D = biological target: T4, HEP3D (Homo sapiens, UniProt P43115); assay: Radioligand binding, EP3 receptor; settings: [3H]PGE2 5 nM
T4 sequence (P43115 1-374 isoform P43115-4): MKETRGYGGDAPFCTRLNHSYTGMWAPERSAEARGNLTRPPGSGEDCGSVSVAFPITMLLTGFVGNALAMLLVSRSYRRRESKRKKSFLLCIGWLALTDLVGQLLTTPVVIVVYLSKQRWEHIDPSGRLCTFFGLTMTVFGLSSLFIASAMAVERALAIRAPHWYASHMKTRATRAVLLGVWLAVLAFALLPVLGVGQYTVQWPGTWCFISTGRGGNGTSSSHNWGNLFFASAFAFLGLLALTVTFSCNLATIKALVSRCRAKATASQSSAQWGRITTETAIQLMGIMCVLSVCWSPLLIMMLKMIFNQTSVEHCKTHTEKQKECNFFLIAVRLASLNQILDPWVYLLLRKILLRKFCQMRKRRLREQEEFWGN
Experimental: (§7) HEK-293 cells stably expressing the human or feline FP receptor, or EP1, EP2, or EP4 receptors were washed with TME buffer, scraped from the bottom of the flasks, and homogenized for 30 sec using a Brinkman PT 10/35 polytron. TME buffer was added to achieve a final 40 ml volume in the centrifuge tubes (the composition of TME is 100 mM TRIS base, 20 mM MgCl2, […]; 10N HCl is added to achieve a pH of 7.4).
(§8) The cell homogenate was centrifuged at 19000 r.p.m. for 20 min at 4° C. using a Beckman Ti-60 rotor. The resultant pellet was resuspended in TME buffer to give a final 1 mg/ml protein concentration, as determined by Biorad assay. Radioligand binding competition assays vs. [^3H-]17-phenyl PGF2α (5 nM) were performed in a 100 μl volume for 60 min. Binding reactions were started by adding plasma membrane fraction. The reaction was terminated by the addition of 4 ml ice-cold TRIS-HCl buffer and rapid filtration through glass fiber GF/B filters using a Brandel cell harvester. The filters were washed 3 times with ice-cold buffer and oven dried for one hour. Non-specific binding was determined with 10 uM unlabeled 17-phenyl PGF2α.
(§9) [^3H-] PGE2 (5 nM; specific activity 180 Ci mmol) was used as the radioligand for EP receptors. Binding studies employing EP1, EP2, EP3, EP4 were performed in duplicate in at least three separate experiments. A 200 μl assay volume was used. Incubations were for 60 min at 25° C. and were terminated by the addition of 4 ml of ice-cold 50 mM TRIS-HCl, followed by rapid filtration through Whatman GF/B filters and three additional 4 ml washes in a cell harvester (Brandel). Non-specific binding determined with 10^−5M of unlabeled PGE2.

hEP3A/Gqi5 = biological target: T5, hEP3A/Gqi5 (Homo sapiens, UniProt P43115); assay: FLIPR calcium signal, hEP3A/Gqi5; assay type: cell-based; settings: HEK-293 (EBNA) cells, read-out: FUNCTIONAL EC50 HEP3A
T5 construct: expressed in transfected cells; host or cells: HEK-293 (EBNA)
T5 sequence (P43115 1-390): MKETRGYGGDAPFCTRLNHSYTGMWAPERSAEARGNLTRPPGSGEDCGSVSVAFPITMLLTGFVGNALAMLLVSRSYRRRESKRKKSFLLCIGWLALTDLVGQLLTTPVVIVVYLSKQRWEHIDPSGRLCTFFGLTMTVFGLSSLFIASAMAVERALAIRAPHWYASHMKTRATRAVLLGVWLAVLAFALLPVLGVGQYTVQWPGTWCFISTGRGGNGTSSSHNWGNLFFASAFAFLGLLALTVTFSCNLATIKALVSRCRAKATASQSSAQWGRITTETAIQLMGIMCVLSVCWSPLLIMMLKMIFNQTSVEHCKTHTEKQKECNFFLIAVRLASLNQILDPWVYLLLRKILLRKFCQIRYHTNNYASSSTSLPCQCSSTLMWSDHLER
Experimental: as §1, §2, §3, §6

HEP2 = biological target: T6, HEP2 (Homo sapiens, UniProt P43116); assay: Radioligand binding, EP2 receptor; settings: [3H]PGE2 5 nM, HEK-293 membranes
T6 construct: expressed in transfected cells; host or cells: HEK-293
Experimental: as §7, §8, §9

HEP4 = biological target: T7, HEP4 (Homo sapiens, UniProt P35408); assay: Radioligand binding, EP4 receptor; settings: [3H]PGE2 5 nM, HEK-293 membranes
T7 construct: expressed in transfected cells; host or cells: HEK-293
Experimental: as §7, §8, §9

hEP4/Gqs5 = biological target: T8, hEP4/Gqs5 (Homo sapiens, UniProt P35408); assay: FLIPR calcium signal, hEP4/Gqs5; assay type: cell-based; settings: HEK-293 (EBNA) cells, read-out: FUNCTIONAL EC50 HEP4
T8 construct: expressed in transfected cells; host or cells: HEK-293 (EBNA)
Experimental: as §1, §2, §3, §6

hEP1 = biological target: T9, hEP1 (Homo sapiens, UniProt P34995); assay: FLIPR calcium signal, hEP1; assay type: cell-based; settings: HEK-293 (EBNA) cells, read-out: FUNCTIONAL EC50 HEP1
T9 construct: expressed in transfected cells; host or cells: HEK-293 (EBNA)
T9 sequence (P34995 1-402): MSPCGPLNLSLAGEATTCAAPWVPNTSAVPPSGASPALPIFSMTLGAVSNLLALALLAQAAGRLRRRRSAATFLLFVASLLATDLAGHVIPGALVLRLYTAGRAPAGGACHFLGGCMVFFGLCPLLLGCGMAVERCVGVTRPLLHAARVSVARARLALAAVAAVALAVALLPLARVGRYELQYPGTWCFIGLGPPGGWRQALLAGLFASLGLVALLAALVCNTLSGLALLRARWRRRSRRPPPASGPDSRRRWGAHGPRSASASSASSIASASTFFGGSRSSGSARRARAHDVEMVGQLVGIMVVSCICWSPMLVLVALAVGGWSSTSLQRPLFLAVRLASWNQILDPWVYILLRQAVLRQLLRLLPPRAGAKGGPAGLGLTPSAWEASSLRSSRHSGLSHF
Experimental: as §1, §4, §5

hDP/Gqs5 = biological target: T10, hDP/Gqs5 (Homo sapiens, UniProt Q13258); assay: FLIPR calcium signal, hDP/Gqs5; assay type: cell-based; settings: HEK-293 (EBNA) cells, read-out: FUNCTIONAL EC50 HDP
T10 construct: expressed in transfected cells; host or cells: HEK-293 (EBNA)
T10 sequence (Q13258 1-359): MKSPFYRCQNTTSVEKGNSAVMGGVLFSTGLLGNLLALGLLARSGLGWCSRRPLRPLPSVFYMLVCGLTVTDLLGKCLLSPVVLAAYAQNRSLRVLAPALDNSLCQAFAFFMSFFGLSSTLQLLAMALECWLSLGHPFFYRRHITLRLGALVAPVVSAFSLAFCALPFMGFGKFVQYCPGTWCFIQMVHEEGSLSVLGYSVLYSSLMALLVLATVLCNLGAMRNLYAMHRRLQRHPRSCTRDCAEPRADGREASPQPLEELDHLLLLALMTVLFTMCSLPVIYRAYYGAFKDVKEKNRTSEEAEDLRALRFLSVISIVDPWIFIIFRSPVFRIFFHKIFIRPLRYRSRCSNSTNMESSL
Experimental: as §1, §4, §5

T8 sequence (P35408 whole entry): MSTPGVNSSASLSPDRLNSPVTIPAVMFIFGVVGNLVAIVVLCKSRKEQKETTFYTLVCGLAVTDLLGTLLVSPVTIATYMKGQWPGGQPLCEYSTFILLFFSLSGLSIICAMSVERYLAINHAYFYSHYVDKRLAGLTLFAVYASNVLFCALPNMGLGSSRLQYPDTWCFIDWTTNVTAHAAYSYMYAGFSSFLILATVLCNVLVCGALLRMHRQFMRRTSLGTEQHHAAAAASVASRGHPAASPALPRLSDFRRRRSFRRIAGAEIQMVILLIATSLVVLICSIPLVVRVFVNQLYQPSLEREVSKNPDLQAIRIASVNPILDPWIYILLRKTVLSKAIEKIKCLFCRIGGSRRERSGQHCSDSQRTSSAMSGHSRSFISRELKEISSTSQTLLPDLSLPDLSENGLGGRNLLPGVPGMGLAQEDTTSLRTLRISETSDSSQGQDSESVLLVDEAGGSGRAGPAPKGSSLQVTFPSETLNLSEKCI
T1 sequence (P43116 whole entry): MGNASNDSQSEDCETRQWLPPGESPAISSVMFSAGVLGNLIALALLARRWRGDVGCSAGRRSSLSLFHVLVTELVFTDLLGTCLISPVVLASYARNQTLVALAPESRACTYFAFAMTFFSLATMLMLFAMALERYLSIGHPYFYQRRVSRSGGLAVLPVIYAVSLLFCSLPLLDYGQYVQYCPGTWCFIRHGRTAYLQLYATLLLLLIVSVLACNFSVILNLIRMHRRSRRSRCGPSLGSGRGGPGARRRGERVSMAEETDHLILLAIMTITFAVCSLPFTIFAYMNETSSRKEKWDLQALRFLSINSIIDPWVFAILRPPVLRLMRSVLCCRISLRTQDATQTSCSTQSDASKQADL
T6 sequence (P43116 whole entry): as above
T7 sequence (P35408 whole entry): as the sequence (P35408 whole entry) above
T2 sequence (P43119 whole entry): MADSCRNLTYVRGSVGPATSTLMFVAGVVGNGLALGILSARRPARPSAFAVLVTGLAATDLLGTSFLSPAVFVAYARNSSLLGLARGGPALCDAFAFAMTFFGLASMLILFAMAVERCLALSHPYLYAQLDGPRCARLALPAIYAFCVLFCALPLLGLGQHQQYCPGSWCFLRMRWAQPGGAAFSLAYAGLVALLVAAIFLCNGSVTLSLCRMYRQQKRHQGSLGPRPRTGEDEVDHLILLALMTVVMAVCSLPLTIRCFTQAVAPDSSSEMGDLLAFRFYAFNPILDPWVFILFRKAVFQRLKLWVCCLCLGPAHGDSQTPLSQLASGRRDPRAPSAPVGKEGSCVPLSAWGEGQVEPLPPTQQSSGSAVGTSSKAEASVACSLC

| EC50 (hEP2/Gqs5) [nM] | EC50 (hIP) [nM] | EC50 (hTP) [nM] | IC50 (HEP3D) [nM] | EC50 (hEP3A/Gqi5) [nM] | IC50 (HEP2) [nM] | IC50 (HEP4) [nM] | EC50 (hEP4/Gqs5) [nM] | EC50 (hEP1) [nM] | EC50 (hDP/Gqs5) [nM] | Compound |
| --- | --- | --- | --- | --- | --- | --- | --- | --- | --- | --- |
| > 10000 | 389 | 3.7 | > 10000 | > 10000 | 600 | 26 | 7240 |  |  | O=C(O)CSCCCS[C@H]1C(=O)CC[C@@H]1/C=C/C(O)Cc1csc2ccccc12 (single isomer, unassigned) [drawing 55, {3-[2-(4-Benzo[b]thiophen-3-yl-3-hydroxy-but-1-enyl)-5-oxo-cyclopentylsulfanyl]-propylsulfanyl}-acetic acid] |
| > 10000 |  | > 10000 | > 10000 | > 10000 | 3500 |  | 6.8 |  |  | O=C(O)CSCCCS[C@H]1C(=O)CC[C@@H]1/C=C/C(O)Cc1csc2ccccc12 (single isomer, unassigned) [drawing 56, {3-[2-(4-Benzo[b]thiophen-3-yl-3-hydroxy-but-1-enyl)-5-oxo-cyclopentylsulfanyl]-propylsulfanyl}-acetic acid] |
| 1220 |  |  |  | 16 | 2200 | 20 | 1.6 | > 10000 | > 10000 | CCCCC[C@H](O)/C=C/[C@H]1CCC(=O)[C@@H]1SCCCSCC(=O)O [{3-[(1R,2R)-2-((E)-(S)-3-Hydroxy-oct-1-enyl)-5-oxo-cyclopentylsulfanyl]-propylsulfanyl}-acetic acid] |
